Measured values reported in patent US11246899B2, “Urtica dioica extracts and methods of isolating urtica dioica extracts” (SynHiTech Inc., priority 2018, dated 2022).

System: Type 2 diabetic patients
Assay: Clinical study in Type 2 diabetic patients, blood glucose by glucometer and side effects
Type: in vivo, human
Method: The effect of the Urdi-1 extract was tested on six Type 2 diabetic patients. The consents were filled by patients and were reviewed by the ethical committee of Tehran Hospital. The UD1-extract (20 mg of Urdi-1) was taken orally as one or two dosages per day. Blood glucose was measured by glucometer as fasted or after dining. After getting the promising data at the animal level, we tested the efficacy of Urdi-1 in Type 2 diabetic patients. Six patients (Patient I to VI) with high level of blood glucose consented to participate in the study (Table 2). These patients were selected different sex (male and female) with varying age ranging from mid forty to late sixty. As the level of the referral blood glucose and the medication administrated by their physicians were different data of each patient is presented individually.

[1] = Patient I, after insulin two weeks then Glibenclamide and metformin for one month
[2] = Patient IV, after insulin 17 days then Glibenclamide and metformin for two weeks

In the case of Glibenclamide and metformin, the fasting blood glucose [1] is reported as “about 175 mg/dL”, the night blood glucose [1] is reported as roughly 225 mg/dL and the fasting blood glucose [2] is reported as “about 90 mg/dL”. The night blood glucose [2] was roughly 220 mg/dL.
